Experiment [1] relates to MDA-MB-231D3H2LN/GFP-Luc mammary carcinoma cells. The experiment in a line: Lung metastasis after tail vein injection of TNBC cells. It is filed as in vivo, NSG mice. The following applies: 25 mg/kg twice a day. The protocol: Mice injected with MDA-MB-231D3H2LN/GFP-Luc mammary carcinoma cells and treated with vehicle or EX67 (25 mg/kg b.i.d.) over the course of 14 days were injected with D-luciferin (150 mg/kg) IP 10 minutes before being imaged. Whole-body imaging was performed on an Optix MX2 Small Animal Molecular Imager to measure the total photon count for each animal±SEM. n=10 for vehicle and n=10 for EX67 group.
The cellular program of epithelial to mesenchymal transition (EMT) is utilized by tumor cells to metastasize. The effect of EX67 on lung metastases was evaluated in a TNBC model.
NSG mice were injected in the tail vein with 500 000 MDA-MB-231D3H2LN/GFP-Luc mammary carcinoma cells. Mice were treated with Vehicle or 25 mg/kg EX67 twice a day. Metastases to the lung were evaluated by in vivo imaging after 3 weeks. Lung metastases were also evaluated macroscopically at the day of culling (see FIG. 14).
After 14 days, lung metastases were detected in 10/10 mice treated with Vehicle and 7/10 mice treated with EX67.

The target in the next experiment is T1, Akt3 (Homo sapiens, UniProt Q9Y243).
T1 construct: unspecified tag, removed (detagged) (cleaved yes); purchased SignalChem and Proteros (Akt3); Merck Millipore (PDK1) 14-452 (PDK1); none given for Akt3
The experiment in a line: Akt activation assay (PDK1-mediated activation, LANCE Ultra crosstide TR-FRET), Akt3. The class given is biochemical. The following applies: read-out: Biological Assay 1 IC50 (nM) Akt3. The method in brief: (§1)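 Unactivated Akt (5 nM Akt1, 15 or 5 nM Akt2, 3 or 5 nM Akt3, by supplier) preincubated with compound, then activated by 5 nM PDK1 on DOPS/DOPC/PtdIns(3,4,5)P3 vesicles with 100 μM ATP and 100 nM Ulight-crosstide, pH 7.5, 30 min. Eu-anti-phospho-crosstide TR-FRET (665/615 nm); IC50 by 4-parameter fit.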
In general terms: In TR-FRET formats the signal depends on donor and acceptor labels being close together.

The target of the next experiment is T2, Akt1 (Homo sapiens, UniProt P31749).
T2 construct: unspecified tag, removed (detagged) (cleaved yes); purchased SignalChem and Proteros (Akt1); Merck Millipore (PDK1) 14-452 (PDK1); none given for Akt1
The experiment in a line: Akt activation assay (PDK1-mediated activation, LANCE Ultra crosstide TR-FRET), Akt1. It is filed as biochemical. The following applies: read-out: Biological Assay 1 IC50 (nM) Akt1. The procedure, abridged: as §1

Another experiment addresses T3, p-Akt3 in WM115 cells (Homo sapiens, UniProt Q9Y243).
T3 construct: SureFire assays to detect cellular p-Akt1, p-Akt2 and p-Akt3 levels in WM115 cells (Akt2/3) and LNCaP cells (Akt1); endogenous in cells; host or cells: WM115 (ECACC 91061232), insulin-stimulated
The experiment in a line: Phospho-Akt cellular SureFire assay, p-Akt3 in WM115 cells. The class given is cell-based. The following applies: insulin stimulated, read-out: Biological Assay 2 IC50 (nM) Akt3 WM115. The method in brief: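 WM115 cells were serum-reduced to 0.1% FBS, stimulated with 100 nM insulin for 10 min, then exposed to compound (0.3% DMSO) for 15 min at 37 °C. Lysates were assayed for Thr308-phosphorylated Akt3 by AlphaScreen SureFire using an isoform-specific total Akt3 capture antibody. IC50 was derived from a 4-parameter fit.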

Another experiment deals with T4, p-Akt2 in WM115 cells (Homo sapiens, UniProt P31751).
T4 construct: SureFire assays to detect cellular p-Akt1, p-Akt2 and p-Akt3 levels in WM115 cells (Akt2/3) and LNCaP cells (Akt1); endogenous in cells; host or cells: WM115 (ECACC 91061232), insulin-stimulated
The experiment in a line: Phospho-Akt cellular SureFire assay, p-Akt2 in WM115 cells. The class given is cell-based. The conditions noted are these: insulin stimulated, read-out: Biological Assay 2 IC50 (nM) Akt2 WM115. The method in brief:
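WM115 cells in 0.1% FBS medium stimulated 10 min with 100 nM insulin, then exposed to compound for 15 min at 37° C (0.3% DMSO final). Lysates assayed by AlphaScreen with anti-(pThr308)Akt and isoform-specific total Akt2 antibodies; IC50 from 4-parameter fit.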

A further experiment has as its target T5, Akt2 (Homo sapiens, UniProt P31751).
T5 construct: unspecified tag, removed (detagged) (cleaved yes); purchased SignalChem and Proteros (Akt2); Merck Millipore (PDK1) 14-452 (PDK1); none given for Akt2
The experiment in a line: Akt activation assay (PDK1-mediated activation, LANCE Ultra crosstide TR-FRET), Akt2. The class given is biochemical. The conditions noted are these: read-out: Biological Assay 1 IC50 (nM) Akt2. The method in brief:
as §1

For the next experiment, the target named is T6, p-Akt1 in LNCaP cells (Homo sapiens, UniProt P31749).
T6 construct: SureFire assays to detect cellular p-Akt1, p-Akt2 and p-Akt3 levels in WM115 cells (Akt2/3) and LNCaP cells (Akt1); endogenous in cells; host or cells: LNCaP (ECACC 89110211)
The experiment can be described thus: Phospho-Akt cellular SureFire assay, p-Akt1 in LNCaP cells. The class given is cell-based. The conditions noted are these: read-out: Biological Assay 2 IC50 (nM) Akt1 LNCaP. The procedure, abridged: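 LNCaP cells, 5×10^4/well, seeded overnight, switched to 0.1% FBS medium without insulin stimulation, then compound for 15 min at 37 °C (0.3% DMSO). Lysate p-Akt1 (pThr308) by AlphaScreen SureFire, two 2 h incubations at room temperature; IC50 by 4-parameter fit.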

Molecules are shown by their SMILES. Bounds are passed on as bounds.

T5 sequence (P31751 whole entry): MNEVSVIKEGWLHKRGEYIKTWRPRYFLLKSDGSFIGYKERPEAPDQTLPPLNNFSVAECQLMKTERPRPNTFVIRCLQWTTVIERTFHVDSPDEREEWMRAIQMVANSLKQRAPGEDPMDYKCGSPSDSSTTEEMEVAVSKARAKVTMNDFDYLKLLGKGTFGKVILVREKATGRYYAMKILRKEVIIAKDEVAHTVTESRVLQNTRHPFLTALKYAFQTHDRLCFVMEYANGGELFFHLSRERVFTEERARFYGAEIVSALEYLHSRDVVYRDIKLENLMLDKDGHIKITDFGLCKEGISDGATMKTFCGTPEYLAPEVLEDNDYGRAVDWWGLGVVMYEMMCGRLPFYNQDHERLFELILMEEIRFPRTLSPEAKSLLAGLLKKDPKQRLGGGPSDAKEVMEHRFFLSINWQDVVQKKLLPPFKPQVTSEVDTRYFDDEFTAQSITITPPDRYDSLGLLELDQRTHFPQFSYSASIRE
T4 sequence (P31751 whole entry): as above
T6 sequence (P31749 whole entry): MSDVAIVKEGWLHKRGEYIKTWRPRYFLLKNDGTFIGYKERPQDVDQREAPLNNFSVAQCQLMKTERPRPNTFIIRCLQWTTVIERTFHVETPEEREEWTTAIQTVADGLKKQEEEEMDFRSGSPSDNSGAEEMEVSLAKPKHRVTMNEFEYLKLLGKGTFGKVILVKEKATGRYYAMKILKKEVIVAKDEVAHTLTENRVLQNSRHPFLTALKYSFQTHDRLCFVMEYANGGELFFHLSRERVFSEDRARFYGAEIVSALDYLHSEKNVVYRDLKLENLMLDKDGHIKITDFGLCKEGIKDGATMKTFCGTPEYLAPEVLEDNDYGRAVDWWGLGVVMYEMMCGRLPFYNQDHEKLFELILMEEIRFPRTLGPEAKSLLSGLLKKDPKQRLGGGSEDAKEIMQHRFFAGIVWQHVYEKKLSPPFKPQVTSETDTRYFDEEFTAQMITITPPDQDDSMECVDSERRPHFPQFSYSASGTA
T2 sequence (P31749 whole entry): as above
T1 sequence (Q9Y243 whole entry): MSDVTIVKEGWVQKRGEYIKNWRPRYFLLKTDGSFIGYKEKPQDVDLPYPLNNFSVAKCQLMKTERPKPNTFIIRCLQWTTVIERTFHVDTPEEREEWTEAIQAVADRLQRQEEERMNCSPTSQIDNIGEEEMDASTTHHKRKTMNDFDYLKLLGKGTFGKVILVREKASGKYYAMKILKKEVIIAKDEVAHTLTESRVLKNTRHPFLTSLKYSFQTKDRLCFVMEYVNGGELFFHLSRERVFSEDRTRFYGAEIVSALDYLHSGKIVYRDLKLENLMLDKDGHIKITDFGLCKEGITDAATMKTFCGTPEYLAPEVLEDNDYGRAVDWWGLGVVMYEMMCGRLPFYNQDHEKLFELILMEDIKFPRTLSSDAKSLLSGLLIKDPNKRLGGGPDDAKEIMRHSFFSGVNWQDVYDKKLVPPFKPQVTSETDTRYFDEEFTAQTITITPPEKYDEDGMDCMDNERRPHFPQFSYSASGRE
T3 sequence (Q9Y243 whole entry): as above

In the case of `COC(=O)N(C)[C@H]1CC[C@H](CC(=O)Nc2cc(-c3ccccc3)c(-c3ccc([C@]4(N)C[C@](C)(O)C4)cc3)cn2)CC1` [EX67], in experiment [1], the lung metastases result was “prevented metastases compared to vehicle-treated mice in a sub-set of animals”. In experiment [1] (after 14 days, vehicle 10/10), the “mice with lung metastases detected” value is given as 7/10.
Take `CC(C)C(=O)N(C)[C@H]1CC[C@H](CC(=O)Nc2cc(-c3ccccc3)c(-c3ccc(C4(N)CC4)cc3)nn2)CC1` [Example A92, N-(trans-4-(2-((6-(4-(1-aminocyclopropyl)phenyl)-5-phenylpyridazin-3-yl)amino)-2-oxoethyl)cyclohexyl)-N-methylisobutyramide]: the half-maximal inhibitory concentration (IC50) (usually the midpoint of a concentration-inhibition curve) at Akt3 was 29 nM; at Akt1, greater than 13000 nM; at p-Akt3 in WM115 cells, 140 nM; on p-Akt2 in WM115 cells it was 2200 nM; on Akt2 it was 1200 nM; on p-Akt1 in LNCaP cells it was greater than 30000 nM.
Regarding `CC(=O)N(C)[C@H]1CC[C@H](CC(=O)Nc2cc(-c3ccccc3)c(-c3ccc([C@]4(N)C[C@](C)(O)C4)c(F)c3)nn2)CC1` [Example 127, N-(6-(4-(trans-1-amino-3-hydroxy-3-methylcyclobutyl)-3-fluorophenyl)-5-phenylpyridazin-3-yl)-2-(trans-4-(N-methylacetamido)cyclohexyl)acetamide], the half-maximal inhibitory concentration (IC50) is 31 nM at Akt3; greater than 25000 nM at Akt1; 42 nM at p-Akt3 in WM115 cells; 2900 nM at p-Akt2 in WM115 cells; 2900 nM at Akt2; greater than 30000 nM on p-Akt1 in LNCaP cells.
In the case of `C[C@]1(O)C[C@@](N)(c2ccc(-c3nnc(NC(=O)C[C@H]4CC[C@H](N5CCCCC5=O)CC4)cc3-c3ccccc3)cc2)C1` [Example A98, N-(6-(4-(trans-1-amino-3-hydroxy-3-methylcyclobutyl)phenyl)-5-phenylpyridazin-3-yl)-2-(trans-4-(2-oxopiperidin-1-yl)cyclohexyl)acetamide], the IC50 on Akt3 is 4 nM; at Akt1, 2600 nM; on p-Akt3 in WM115 cells, 5 nM; on p-Akt2 in WM115 cells, 320 nM; on Akt2 it was 53 nM; at p-Akt1 in LNCaP cells, 1900 nM.
For `CN(C(=O)C1CC1)[C@H]1CC[C@H](CC(=O)Nc2cc(-c3ccccc3)c(-c3ccc(C(C)(C)N)cc3)nn2)CC1` [Example A86, N-(trans-4-(2-((6-(4-(2-aminopropan-2-yl)phenyl)-5-phenylpyridazin-3-yl)amino)-2-oxoethyl)cyclohexyl)-N-methylcyclopropanecarboxamide], the IC50 on Akt3 is 45 nM; at Akt1, greater than 30000 nM; at p-Akt3 in WM115 cells, 170 nM; on p-Akt2 in WM115 cells it was 8300 nM; at Akt2 it was 3900 nM; at p-Akt1 in LNCaP cells it was greater than 21000 nM.

For the origin of these results see patent US10336702B2, “Pharmaceutically active compounds” (BERGENBIO ASA, priority 2015, dated 2019).
